Results reported in US5925369A, “Bis alkanoyl esters of carnitine having bactericidal, fungicidal and antiprotozoal activity” (priority 1996, dated 1999).
Like-named read-outs stand apart in the source and are kept apart here.

Experiments:
Gram positive bacteria = assay: MIC on Gram positive bacteria (all strains); type: cell-based
Method: Bacterial suspensions are prepared from an overnight culture in Mueller-Hinton broth and are adjusted, in the same medium, to a final concentration of 5.0×10^4 cells/ml in each well of a 96-well microtiter plate. Substance dilutions (0.3 log) in Mueller-Hinton broth are added to the suspensions in order to have a range of final concentrations from 0.19 to 100 mcg/ml.
Microtiters are then incubated at 37° C. for 18 hours. (See L. D. THRUPP, Susceptibility testing of antibiotics in liquid media, in: Antibiotics in laboratory medicine. V. LORIAN Ed., II edition, 4, 93-150, Williams & Wilkins, Baltimora, Md. 21202 U.S.A.).

filamentous fungi = assay: MIC on filamentous fungi (all strains); type: cell-based; settings: for MIC: lab collection, 5 strains
Method: The conidia are collected from 72-hour cultures in Sabouraud agar by washing them with Sabouraud broth and 0.5% Tween 80. After a coarse filtration and washing, the resulting suspensions are adjusted to a final concentration of approx. 5.0×10^4 CFU/ml in a microtiter plate. The substances (0.3 log dilutions in Y.N.B.s.) are added to the fungal suspensions in order to generate a range of final concentrations from 0.19 to 100 mcg/ml. The microtiter plates are then incubated at 35° C. for 48-72 hours.

Trichomonas vaginalis = assay: MIC on protozoa (Trichomonas vaginalis); type: cell-based; settings: for MIC: Trichomonas vaginalis
Method: Protozoal suspensions are prepared from 24-hour cultures grown at 37° C. and 5% CO2 in DIAMOND T.Y.M. broth supplemented with 10% heat-inactivated FCS.
The suspensions are adjusted, in the same medium, to a final concentration of 2.5×10^5 cells/ml in each well of a 96-well microtiter plate. Substance dilutions (0.3 log) are added to the suspensions in order to have a range of final concentrations from 0.19 to 100 mcg/ml. Microtiters are then incubated at 37° C. and 5% CO2 for 24 hours. MIC is referred to as the minimal concentration inhibiting either protozoa or flagella or undulating membrane motility (Cf. JULIANO C., MARTINOTTI M. G., […] P., In vitro effect of microtubule inhibitors on T. vaginalis, Microbiologia, 8:31-42, 1985. LOVGREN T. and SALMELA I., Invitro sensitivity of T. vaginalis and C. albicans to chemotherapeutic agents, Acta Path. Microbiol. Scand.. 86:155-158, 1978).

bacteria and fungi = settings: bactericidal (EP-A-0 552 137) and fungicidal (EP-A-0 552 138); cited from earlier work
[1] = system: T. mentagrophytes IDI D1049; assay: Antifungal activity in experimental Tinea pedis in the guinea-pig paw; type: in vivo, Hartley guinea-pig; settings: for A (clinical sign score) / D (clinical sign score) / E (clinical sign score): scale 0-3; for sterile samples (%) / sterile samples (n = 30), number over total: 20 days once a day, day +31
Source text: Twelve male Hartley guinea-pig (C. RIVER), weighing 350-400 gr, have been utilized (3 animals per experimental group).
One clinical isolate (Tricophyton mentagrophytes IDI D 1049, from Immacolata Dermatological Institute of Rome) was utilized.
Microaleuriospores were first harvested by scraping from a 7-day fungal culture grown in Potato dextrose agar, and then resuspended in Sabouraud broth with 0.5% Tween 80.
After washing, the spores were standardized in sterile saline to yield a final concentration of 1.0×10^8 spores/ml.
Each group included 3 animals, and only the left hind paw was inoculated. For the 2 control groups, 3 animals in total were used, as both hind paws of each animal were inoculated.
Filter paper discs (12-mm diameter and 0.3-mm thickness) were covered with aluminum foil in the lower part to prevent the inoculum spreading. This filter was then sticked to a 1×3-cm piece of biadesive plaster, which adhered to a gauze wrapped around the paw.
The filter paper disc was then wetted with 100 μl of the infective suspension, and subsequently fixed to the guinea-pig paw.
The animal paw was tied up with bandage and plaster, and then left in these conditions for 7 days.
Seven days after infection, the infected areas were uncovered and the type of lesion was graded according to an arbitrary scale, as follows:
These "clinical" signs were examined again on days +14, +21, and +31 (day of sacrifice of animals). Three days following the first observation of the type of lesion (day +10), treatments with the differrent formulations were started, and they went on for 20 days (once a day). Two days following the last treatment (day +31), animals were sacrificed and plantar areas of the paws were dissected into 10 parts for each paw.
These sections were plated onto Mycobiotic agar supplemented with Penicillin G and Streptomicin (100 mcg/ml). Volumes of 50 μl of both antibiotics were then added to the plantar sections to prevent any bacterial growth that might interfere with the growth of T. mentagrophytes in the samples under examination.
The data obtained were expressed as the number of microbiologically sterile cutaneous sections over the total examined sections.

[2] = T. vaginalis SS-2, read-out: Minimal Inhibitory Concentration
[3] = T. vaginalis SS-9, read-out: Minimal Inhibitory Concentration
[4] = T. vaginalis SS-20, Metronidazole resistant, read-out: Minimal Inhibitory Concentration
[5] = T. vaginalis SS-22, Metronidazole resistant, read-out: Minimal Inhibitory Concentration
[6] = T. vaginalis, 4 strains, read-out: Mean MIC

CCCCCCCCCCCOC(=O)C[C@H](C[N+](C)(C)C)OC(=O)CC(C)C [ST 1103, isovaleryl L-carnitine undecyl ester methanesulfonate, reference compound]
MIC (Gram positive bacteria; clinical isolates, 10 strains): 3.9 µg/mL | MIC (Gram positive bacteria; lab collection, 5 strains): 4.06 µg/mL | MIC (filamentous fungi): 18.8 µg/mL | MIC (Trichomonas vaginalis; [2]): 25 µg/mL | MIC (Trichomonas vaginalis; [3]): 25 µg/mL | MIC (Trichomonas vaginalis; [4]): 25 µg/mL | MIC (Trichomonas vaginalis; [5]): 25 µg/mL | MIC (Trichomonas vaginalis; [6]): 25 µg/mL | activity among the known compounds (bacteria and fungi): most active both as bactericidal and fungicidal agent

CCCCCCCCCCC(=O)O[C@H](CC(=O)OCc1ccc(COC(=O)C[C@H](C[N+](C)(C)C)OC(=O)CCCCCCCCCC)cc1)C[N+](C)(C)C [ST 1226, bis(undecanoyl L-carnitine chloride)p-xylilene diester]
MIC (filamentous fungi): 8.43 µg/mL | activity compared with ST 1103 (filamentous fungi; single results and mean MIC): markedly higher activity than ST 1103 | greater (fold) activity than ST 1103 (Trichomonas vaginalis; T. vaginalis, ST 1226 vs ST 1103): 2 fold | MIC (Trichomonas vaginalis; [2]): 12.5 µg/mL | MIC (Trichomonas vaginalis; [3]): 12.5 µg/mL | MIC (Trichomonas vaginalis; [4]): 12.5 µg/mL | MIC (Trichomonas vaginalis; [5]): 12.5 µg/mL | MIC (Trichomonas vaginalis; [6]): 12.5 µg/mL | microbiological recovery ([1]; 1% ST 1226): 80% | A (clinical sign score) ([1]; 1%, 7th day): 0 | D (clinical sign score) ([1]; 1%, 7th day): 0 | E (clinical sign score) ([1]; 1%, 7th day): 0 | A (clinical sign score) ([1]; 1%, 14th day): 0 | D (clinical sign score) ([1]; 1%, 14th day): 0 | E (clinical sign score) ([1]; 1%, 14th day): 0 | A (clinical sign score) ([1]; 1%, 21st day): 0 | D (clinical sign score) ([1]; 1%, 21st day): 0 | E (clinical sign score) ([1]; 1%, 21st day): 0 | A (clinical sign score) ([1]; 1%, 31st day): 0 | D (clinical sign score) ([1]; 1%, 31st day): 0 | E (clinical sign score) ([1]; 1%, 31st day): 0 | sterile samples (%) ([1]; 1%): 80% | sterile samples (n = 30), number over total ([1]; 1%): 24/30 | microbiological recovery ([1]; 1.5% ST 1226): 100% | A (clinical sign score) ([1]; 1.5%, 7th day): 0 | D (clinical sign score) ([1]; 1.5%, 7th day): 0 | E (clinical sign score) ([1]; 1.5%, 7th day): 0 | A (clinical sign score) ([1]; 1.5%, 14th day): 0 | D (clinical sign score) ([1]; 1.5%, 14th day): 0 | E (clinical sign score) ([1]; 1.5%, 14th day): 0 | A (clinical sign score) ([1]; 1.5%, 21st day): 0 | D (clinical sign score) ([1]; 1.5%, 21st day): 0 | E (clinical sign score) ([1]; 1.5%, 21st day): 0 | A (clinical sign score) ([1]; 1.5%, 31st day): 0 | D (clinical sign score) ([1]; 1.5%, 31st day): 0 | E (clinical sign score) ([1]; 1.5%, 31st day): 0 | sterile samples (%) ([1]; 1.5%): 100% | sterile samples (n = 30), number over total ([1]; 1.5%): 20/20
